We go through 28 molecules from patent US7879848B2, “Dipeptidyl Peptidase-IV inhibiting compounds, method of preparing the same, and pharmaceutical compositions containing the same as an active agent” (LG Life Sciences, Ltd., priority 2005, dated 2011).

pIC50: −log10 of the molar value.

The assay deals with T1, Dipeptidyl Peptidase-IV (DPP-IV) (Homo sapiens, UniProt P27487).
T1 construct: made in house
Description: Measurement of DPP-IV Activity-Inhibiting Ability (fluorescent substrate Ac-Gly-Pro-AFC). The format is biochemical. Particulars: 25° C., 50 mmol HEPES (pH 7.4), DP-IV 7.1 nM, enzyme reaction for 1 hour. The text has this: Dipeptidyl Peptidase-IV (DPP-IV), known as serine protease, was obtained by a modification of the known method (Tanaka T. et al, Proc. Natl. Acad. Sci. USA, (1994) 91, 3082-3086), which comprises cloning, purification by use of Baculo-Virus and activation steps. DPP-IV was used to test the pharmaceutical efficacy of candidate inhibitors as follows. The cloned DP-IV was expressed in Baculo-Virus, which was purified by nickel column and then subjected to dialysis. The inhibitors synthesized in Examples were tested to determine the binding activity there of using a fluorescent substrate, Ac-Gly-Pro-AFC. Enzyme reactions were conducted for various concentrations of inhibitors, using 100 µM Ac-Gly-Pro-AFC at 25° C. in a buffer solution containing 50 mmol HEPES (pH 7.4), with the concentration of DP-IV being 7.1 nM. […] As the fluorescent spectrometer, Spectra MAX GeminiXS fluorescent spectrometer from Molecular Device Co. was used and the excitation frequency and emission frequency were set to 400 nm and 505 nm, respectively.

T1 sequence (P27487 whole entry): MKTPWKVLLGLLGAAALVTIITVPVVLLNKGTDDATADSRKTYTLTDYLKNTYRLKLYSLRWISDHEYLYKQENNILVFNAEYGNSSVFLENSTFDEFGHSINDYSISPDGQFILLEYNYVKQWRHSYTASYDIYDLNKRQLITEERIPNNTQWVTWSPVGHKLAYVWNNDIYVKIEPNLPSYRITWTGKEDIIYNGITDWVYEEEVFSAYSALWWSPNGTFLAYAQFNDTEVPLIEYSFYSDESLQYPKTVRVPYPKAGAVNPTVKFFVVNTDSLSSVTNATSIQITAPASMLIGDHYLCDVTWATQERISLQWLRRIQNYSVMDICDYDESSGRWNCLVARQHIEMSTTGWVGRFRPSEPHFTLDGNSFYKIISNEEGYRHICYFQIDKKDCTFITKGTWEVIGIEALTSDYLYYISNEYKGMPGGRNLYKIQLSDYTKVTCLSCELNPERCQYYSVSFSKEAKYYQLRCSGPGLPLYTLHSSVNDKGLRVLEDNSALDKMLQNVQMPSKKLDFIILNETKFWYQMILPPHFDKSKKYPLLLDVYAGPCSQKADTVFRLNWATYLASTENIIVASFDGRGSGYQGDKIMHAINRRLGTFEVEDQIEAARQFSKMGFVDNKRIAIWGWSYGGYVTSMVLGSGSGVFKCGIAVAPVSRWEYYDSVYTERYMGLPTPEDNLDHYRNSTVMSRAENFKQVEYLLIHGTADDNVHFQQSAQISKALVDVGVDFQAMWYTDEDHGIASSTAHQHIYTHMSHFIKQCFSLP

Molecule `N[C@@H](CC(=O)N1CCc2c(nc(-c3ccsc3)nc2C(F)(F)F)C1)CN1CC(F)(F)CCC1=O` [Ex. 61, 1-{(2S)-2-amino-4-oxo-4-[2-(3-thienyl)-4-(trifluoromethyl)-5,8-dihydropyrido[3,4-d]pyrimidin-7(6H)-yl]butyl}-5,5-difluoropiperidin-2-one] had a negative logarithm of the IC50 (pIC50) of 7.26.

For the molecule `C[C@@H]1CCC(=O)N(C[C@@H](N)CC(=O)N2CCc3c(nc(-c4cccs4)nc3C(F)(F)F)C2)C1` [Ex. 62, (5R)-1-{(2S)-2-amino-4-oxo-4-[2-(2-thienyl)-4-(trifluoromethyl)-5,8-dihydropyrido[3,4-d]pyrimidin-7(6H)-yl]butyl}-5-methylpiperidin-2-one], the negative logarithm of the IC50 (pIC50) is 7.49. Next, `N[C@@H](CC(=O)N1CCc2c(nc(-c3cccs3)nc2C(F)(F)F)C1)CN1CC(F)(F)CCC1=O` [Ex. 63, 1-{(2S)-2-amino-4-oxo-4-[2-(2-thienyl)-4-(trifluoromethyl)-5,8-dihydropyrido[3,4-d]pyrimidin-7(6H)-yl]butyl}-5,5-difluoropiperidin-2-one]: 7.46. Next, `C[C@@H]1CCC(=O)N(C[C@@H](N)CC(=O)N2CCc3c(nc(-c4ccco4)nc3C(F)(F)F)C2)C1` [Ex. 64, (5R)-1-{(2S)-2-amino-4-[2-(2-furyl)-4-(trifluoromethyl)-5,8-dihydropyrido[3,4-d]pyrimidin-7(6H)-yl]-4-oxobutyl}-5-methylpiperidin-2-one]: 8.30.

On to `N[C@@H](CC(=O)N1CCc2c(nc(-c3ccco3)nc2C(F)(F)F)C1)CN1CC(F)(F)CCC1=O` [Ex. 65, 1-{(2S)-2-amino-4-[2-(2-furyl)-4-(trifluoromethyl)-5,8-dihydropyrido[3,4-d]pyrimidin-7(6H)-yl]-4-oxobutyl}-5,5-difluoropiperidin-2-one], for which the pIC50 was 7.92. Next, `C[C@@H]1CCC(=O)N(C[C@@H](N)CC(=O)N2CCc3c(nc(-c4ccoc4)nc3C(F)(F)F)C2)C1` [Ex. 66, (5R)-1-{(2S)-2-amino-4-[2-(3-furyl)-4-(trifluoromethyl)-5,8-dihydropyrido[3,4-d]pyrimidin-7(6H)-yl]-4-oxobutyl}-5-methylpiperidin-2-one]: 7.80; `N[C@@H](CC(=O)N1CCc2c(nc(-c3ccoc3)nc2C(F)(F)F)C1)CN1CC(F)(F)CCC1=O` [Ex. 67, 1-{(2S)-2-amino-4-[2-(3-furyl)-4-(trifluoromethyl)-5,8-dihydropyrido[3,4-d]pyrimidin-7(6H)-yl]-4-oxobutyl}-5,5-difluoropiperidin-2-one]: 8.00. Under `C[C@@H]1CCC(=O)N(C[C@@H](N)CC(=O)N2CCc3c(nc(-c4ccc[nH]4)nc3C(F)(F)F)C2)C1` [Ex. 68, (5R)-1-{(2S)-2-amino-4-oxo-4-[2-(1H-pyrrol-2-yl)-4-(trifluoromethyl)-5,8-dihydropyrido[3,4-d]pyrimidin-7(6H)-yl]butyl}-5-methylpiperidin-2-one] stands 7.14; under `N[C@@H](CC(=O)N1CCc2c(nc(-c3ccc[nH]3)nc2C(F)(F)F)C1)CN1CC(F)(F)CCC1=O` [Ex. 69, 1-{(2S)-2-amino-4-oxo-4-[2-(1H-pyrrol-2-yl)-4-(trifluoromethyl)-5,8-dihydropyrido[3,4-d]pyrimidin-7(6H)-yl]butyl}-5,5-difluoropiperidin-2-one], 7.26. Next, `C[C@@H]1CCC(=O)N(C[C@@H](N)CC(=O)N2CCc3c(nc(-c4cccnc4)nc3C(F)(F)F)C2)C1` [Ex. 70, (5R)-1-{(2S)-2-amino-4-oxo-4-[2-pyridin-3-yl-4-(trifluoromethyl)-5,8-dihydropyrido[3,4-d]pyrimidin-7(6H)-yl]butyl}-5-methylpiperidin-2-one]: 8.10; `N[C@@H](CC(=O)N1CCc2c(nc(-c3cccnc3)nc2C(F)(F)F)C1)CN1CC(F)(F)CCC1=O` [Ex. 71, 1-{(2S)-2-amino-4-oxo-4-[2-pyridin-3-yl-4-(trifluoromethyl)-5,8-dihydropyrido[3,4-d]pyrimidin-7(6H)-yl]butyl}-5,5-difluoropiperidin-2-one]: 8.30. Take `CCc1nc2c(c(C(F)(F)F)n1)CCN(C(=O)C[C@H](N)CN1CC(F)(F)CCC1=O)C2` [Ex. 72, 1-{(2S)-2-amino-4-[2-ethyl-4-(trifluoromethyl)-5,8-dihydropyrido[3,4-d]pyrimidin-7(6H)-yl]-4-oxobutyl}-5,5-difluoropiperidin-2-one]: the negative-log IC50 (pIC50) is 7.64. With `CCc1nc2c(c(C(F)(F)F)n1)CCN(C(=O)C[C@H](N)CN1C[C@H](C)OCC1=O)C2` [Ex. 73, (6S)-4-{(2S)-2-amino-4-[2-ethyl-4-(trifluoromethyl)-5,8-dihydropyrido[3,4-d]pyrimidin-7(6H)-yl]-4-oxobutyl}-6-methylmorpholine-3-one], the pIC50 is 7.57. Under `CC(C)c1nc2c(c(C(F)(F)F)n1)CCN(C(=O)C[C@H](N)CN1CC(F)(F)CCC1=O)C2` [Ex. 74, 1-{(2S)-2-amino-4-[2-isopropyl-4-(trifluoromethyl)-5,8-dihydropyrido[3,4-d]pyrimidin-7(6H)-yl]-4-oxobutyl}-5,5-difluoropiperidin-2-one] stands 7.59; under `CC(C)c1nc2c(c(C(F)(F)F)n1)CCN(C(=O)C[C@H](N)CN1C[C@H](C)CCC1=O)C2` [Ex. 75, 1-{(2S)-2-amino-4-[2-isopropyl-4-(trifluoromethyl)-5,8-dihydropyrido[3,4-d]pyrimidin-7(6H)-yl]-4-oxobutyl}-5-methylpiperidin-2-one], 7.80; under `CC(C)c1nc2c(c(C(F)(F)F)n1)CCN(C(=O)C[C@H](N)CN1C[C@H](C)OCC1=O)C2` [Ex. 76, (6S)-4-{(2S)-2-amino-4-[2-isopropyl-4-(trifluoromethyl)-5,8-dihydropyrido[3,4-d]pyrimidin-7(6H)-yl]-4-oxobutyl}-6-methylmorpholine-3-one], 7.52. Under `C[C@@H]1CN(C[C@@H](N)CC(=O)N2CCn3c(nnc3C(F)(F)F)C2)C(=O)CO1` [Ex. 77, (6R)-4-{(2S)-2-amino-4-oxo-4-[3-(trifluoromethyl)-5,6-dihydro[1,2,4]triazolo[4,3-a]pyrazin-7(8H)-yl]butyl}-6-methylmorpholine-3-one] stands 7.03. As for `C[C@H]1CN(C[C@@H](N)CC(=O)N2CCn3c(nnc3C(F)(F)F)C2)C(=O)CO1` [Ex. 78, (6S)-4-{(2S)-2-amino-4-oxo-4-[3-(trifluoromethyl)-5,6-dihydro[1,2,4]triazolo[4,3-a]pyrazin-7(8H)-yl]butyl}-6-methylmorpholine-3-one], the pIC50 is 6.79. In turn, `C[C@H]1CCC(=O)N(C[C@@H](N)CC(=O)N2CCn3c(nnc3C(F)(F)F)C2)C1` [Ex. 79, (5S)-1-{(2S)-2-amino-4-oxo-4-[3-(trifluoromethyl)-5,6-dihydro[1,2,4]triazolo[4,3-a]pyrazin-7(8H)-yl]butyl}-5-methylpiperidin-2-one] showed a pIC50 of 6.41. Next, `C[C@H]1CCC(=O)N(C[C@@H](N)CC(=O)N2CCc3c(nc(C(F)(F)F)nc3C(F)(F)F)C2)C1` [Ex. 80]: 5.05; `Cc1nc2c(c(C(F)(F)F)n1)CCN(C(=O)C[C@H](N)CN1C[C@H](C)CCC1=O)C2` [Ex. 81, (5R)-1-{(2S)-2-amino-4-[2-methyl-4-(trifluoromethyl)-5,8-dihydropyrido[3,4-d]pyrimidin-7(6H)-yl]-4-oxobutyl}-5-methylpiperidin-2-one]: 8.00; `C[C@@H]1CCC(=O)N(C[C@@H](N)CC(=O)N2CCc3c(nc(C(F)(F)F)nc3C(F)(F)F)C2)C1` [Ex. 82, (5R)-1-{(2S)-2-amino-4-[2,4-bis(trifluoromethyl)-5,8-dihydropyrido[3,4-d]pyrimidin-7(6H)-yl]-4-oxobutyl}-5-methylpiperidin-2-one]: 7.80.

Turning to `C[C@H]1CN(C[C@@H](N)CC(=O)N2CCc3c(nc(C(F)(F)F)nc3C(F)(F)F)C2)C(=O)CO1` [Ex. 84], the pIC50 is 7.42. Under `Cc1nc2c(c(C(F)(F)F)n1)CCN(C(=O)C[C@H](N)CN1CC(F)(F)CCC1=O)C2` [Ex. 85, 1-{(2S)-2-amino-4-[2-methyl-4-(trifluoromethyl)-5,8-dihydropyrido[3,4-d]pyrimidin-7(6H)-yl]-4-oxobutyl}-5,5-difluoropiperidin-2-one] stands 7.80; under `Cc1nc2c(c(C(F)(F)F)n1)CCN(C(=O)C[C@H](N)CN1C[C@H](C)OCC1=O)C2` [Ex. 86], 7.52.

In turn, `N[C@@H](CC(=O)N1CCc2c(ncnc2C(F)(F)F)C1)CN1CC(F)(F)CCC1=O` [Ex. 87, 1-{(2S)-2-amino-4-oxo-4-[4-(trifluoromethyl)-5,8-dihydropyrido[3,4-d]pyrimidin-7(6H)-yl]butyl}-5,5-difluoropiperidin-2-one] had a negative-log IC50 (pIC50) of 7.54. Next, `C[C@H]1CN(C[C@@H](N)CC(=O)N2CCc3c(ncnc3C(F)(F)F)C2)C(=O)CO1` [Ex. 88, (6S)-4-{(2S)-2-amino-4-oxo-4-[4-(trifluoromethyl)-5,8-dihydropyrido[3,4-d]pyrimidin-7(6H)-yl]butyl}-6-methylmorpholine-3-one]: 7.32. Next, `N[C@@H](CC(=O)N1CCn2c(nnc2C(F)(F)C(F)(F)F)C1)CN1CC(F)(F)CCC1=O` [Ex. 89, 1-{(2S)-2-amino-4-oxo-4-[3-(pentafluoroethyl)-5,6-dihydro[1,2,4]triazolo[4,3-a]pyrazin-7(8H)-yl]butyl}-5,5-difluoropiperidin-2-one]: 6.67.

The term pIC50 denotes the negative decadic logarithm of the IC50, by convention in mol/L. A high value points to a small IC50.
